Data set [1] deals with T1, LuxS of E. coli (Escherichia coli O157:H7, UniProt Q8X902).
T1 construct: endogenous in cells; host or cells: E. coli O157:H7 (ATCC 43895)
T1 sequence (Q8X902 2-171): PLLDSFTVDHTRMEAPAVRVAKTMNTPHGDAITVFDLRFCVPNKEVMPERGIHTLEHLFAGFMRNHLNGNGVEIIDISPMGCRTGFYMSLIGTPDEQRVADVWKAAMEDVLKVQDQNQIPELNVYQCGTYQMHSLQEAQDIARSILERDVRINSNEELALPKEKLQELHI
Kind of data set: AI-2 bioluminescence assay (V. harveyi BB170 reporter) of AI-2 production. In kind it is cell-based. To be noted: E. coli O157:H7 cultured 16 h with inhibitor, supernatant read with V. harveyi BB170.

In data set [2] the target is T2, LuxS (Escherichia coli O157:H7, UniProt Q8X902).
T2 sequence (Q8X902 2-171): T1 sequence (Q8X902 2-171)
Kind of data set: Surface plasmon resonance (BIAcore T200) binding. How it is done:
The binding affinity of the three compounds and LuxS was assessed by SPR assay using a BIAcore T200 (GE Healthcare, Pittsburgh, PA) ([64]). The LuxS protein was immobilized on a CM5 sensor chip with the final immobilization levels of 7,582.4 resonance units (RU). The running buffer used in the study was 1.0× phosphate-buffered saline containing detergent (PBS-P^+; pH 7.4) and 5% (vol/vol) dimethyl sulfoxide. For each binding cycle, the compound was injected for 120 s with a dissociation time of 180 s. A series of compound concentrations (0.94, 1.88, 3.75, 7.5, 15, and 30 μM) were injected for analysis, with furanone C30 as a positive control. Eventually, data were analyzed by Biacore evaluation software, whereas the equilibrium dissociation constant (KD = Kd/Ka) was calculated by curve fitting with a 1:1 binding model.
A general note: In SPR one partner is held on a chip, and binding of the other changes the refractive index at the surface.

In data set [3] the test system is E. coli O157:H7. In words: Growth, microbroth dilution assay (OD600). The class given is cell-based, Escherichia coli O157:H7. To be noted: 6.25 to 100 μM, 24 h, compared to the control. Here is the method: As described for previous protocols, growth and metabolic activity were evaluated by the broth dilution method and an alamarBlue assay ([65], [66]). Briefly, 96-well plates were seeded with bacterial suspension (OD600 = 0.01) containing different concentrations of hit compounds and incubated at 37°C for 24 h. At 600 nm, the absorbance was measured using the Multiskan Go Reader (Thermo Fisher Scientific, USA).
On the technique in general: Broth dilution looks for growth in wells or tubes with falling amounts of substance.

Data set [4] deals with Caco-2 cells. Kind of data set: Cytotoxicity, CCK-8 assay. In kind it is cell-based. To be noted: 24 h. How it is done: The cytotoxicity of hit compounds was assessed by a CCK-8 assay in Caco-2 cells. At 37°C, Caco-2 cells (1 × 10^5 cells/mL) were seeded in a 96-well plate for 24 h. Further, different concentrations of hit compounds were added to 96-well plates at final concentrations of 6.25, 12.5, 25, 50, and 100 μM. After incubation for 24 h, the plate was incubated at 37°C for 1 h with 10 μL of CCK-8 (MCE, China). A Multiskan Go Reader (Thermo Fisher Scientific) was used to measure the absorbance at 450 nm.
(Tetrazolium assays rely on reduction of a dye to a coloured formazan, in cell work by metabolically active cells.)

The test system of data set [5] is E. coli O157:H7 biofilm. Kind of data set: Biofilm formation, crystal violet (CV) staining. In kind it is cell-based, Escherichia coli O157:H7. To be noted: 50 μM, 24 h. Here is the method:
Based on previous studies, CV staining was used to assess biofilm formation ([67]). The overnight cultured E. coli O157:H7 was diluted to OD600 of 0.01. The diluted E. coli suspensions were mixed with different concentrations of hit compounds and incubated at 37°C for 24 h. The plate was washed three times using PBS (pH 7.2) before it was fixed with methanol for 30 min. After staining for 30 min with CV, the plates were rinsed with distilled water and dried at 55°C. Finally, the CV attached to wells was dissolved in 95% ethanol. The absorbance at 570 nm was then measured using a Multiskan Go Reader.

Data set [6] relates to luxS gene. The class given is cell-based, E. coli.
For data set [7], the system named is E. coli O157:H7. Kind of data set: Metabolic activity, alamarBlue assay. To be noted: 6.25 to 100 μM, 24 h, compared to the control.
Where [8] appears, read: IC50, AI-2 bioluminescence assay.

pIC50, pKd: −log10 of the molar value. Like-named read-outs stand apart in the source and are kept apart here.

Usually pIC50 stands for −log10 of the IC50, conventionally taken in molar units. Usually pKd stands for the Kd on a negative log10 scale, so that one unit is a factor of ten.

In data set [1] (setting [8]), `O=C(NCc1nc2ccccc2[nH]1)c1ccccc1` [0180-0358] gave a pIC50 of 4.65.

With `CCOc1ccc(NCC(=O)N/N=C/c2c[nH]c3ccccc23)cc1` [1761-1352], the pIC50 in data set [1] (setting [8]) was 4.53.

`O=C(N/N=C/c1ccc(O)c(O)c1)c1cc(-c2ccc3ccccc3c2)n[nH]1` [3254-3286]: in data set [1] (setting [8]), the pIC50 is 5.12. The pKd in data set [2] was 4.73. Besides, in data set [3], the “effect on growth of E. coli” value was “no significant effect”. In data set [4] (6.25 to 100 μM), the “cytotoxicity to Caco-2 cells” value was “nontoxic”. In addition, in data set [5], the “biofilm formation, increased by about” value was ~81.12%. The “suppression of the expression of LuxS” value in data set [6] is ~57.4%. Moreover, the “effect on metabolic activity of E. coli” value in data set [7] was “no significant effect”.

`COc1ccc2[nH]c(C(=O)NC3CCC(CN4Cc5ccccc5C4=O)CC3)c(C)c2c1` (stereo not shown) [D753-0186] showed a pIC50 in data set [1] (setting [8]) of 4.72.

In turn, `Cc1ccc2ccc3cc(C(=O)NCCN4CCN(c5cccc(Cl)c5)CC4)[nH]c3c2n1` [E941-0195] had a pIC50 in data set [1] (setting [8]) of 4.55.

For the compound `O=C(NCCN1CCN(c2cccc(Cl)c2)CC1)c1cc2ccc3cccnc3c2[nH]1` [E950-0195], the pIC50 in data set [1] (setting [8]) was 4.48.

For the compound `O=C(NCCN1CCN(c2ccccc2F)CC1)c1cc2ccc3cccnc3c2[nH]1` [E950-0198], the pIC50 in data set [1] (setting [8]) was 4.51.

`Cc1cc(CNC(=O)Nc2cccc3c2CCCC3)c(C)n1-c1ccccc1` [E983-1808] had a pIC50 in data set [1] (setting [8]) of 4.66.

The compound `NC1=C(c2nc3ccccc3s2)C(=O)CN1c1cccc(C(=O)NCc2ccccc2)c1` [F187-0533] had a pIC50 in data set [1] (setting [8]) of 4.87.

On to `Cc1[nH]c(C(=O)NC2CCCCC2)c(C)c1S(=O)(=O)N1CCCCCC1` [F379-1612], for which the pIC50 in data set [1] (setting [8]) is 4.58.

Compound `COc1ccc(C(=O)Nc2cc(NC(=O)c3cc4ccccc4[nH]3)ccc2OC)cc1` [F603-0744] showed a pIC50 in data set [1] (setting [8]) of 4.91.

In turn, `O=C(NCC1CCN(Cc2ccc(Cl)cc2)CC1)c1n[nH]c2c1COc1ccccc1-2` [G365-0523] showed a pIC50 in data set [1] (setting [8]) of 4.91.

The compound `COc1cccc(NC(=O)CSCc2cc(=O)c3ccccc3[nH]2)c1` [G751-0153] had a pIC50 in data set [1] (setting [8]) of 4.77.

`CCc1ccc(NC(=O)CSCc2cc(=O)c3cccc(F)c3[nH]2)cc1` [G751-5415]: the pIC50 in data set [1] (setting [8]) is 4.58.

`CCc1ccc(NC(=O)CSCc2cc(=O)c3cc(CC)ccc3[nH]2)cc1` [G751-5495] showed a negative logarithm of the IC50 (pIC50) in data set [1] (setting [8]) of 4.61.

Turning to `Cc1ccc(C(=O)N2CCc3cc(CNC(=O)c4ccc(C#N)cc4)ccc32)cc1` [G883-0304], in data set [1] (setting [8]), the pIC50 is 4.72.

For the compound `Cc1ccc(C(=O)N2CCc3cc(CNC(=O)c4ccc(Br)cc4)ccc32)cc1` [G883-0331], the pIC50 in data set [1] (setting [8]) was 4.82.

`Cc1ccc(C(=O)NCc2ccc3c(c2)CCN3C(=O)c2ccc(Cl)cc2)cc1` [G883-0476] showed a pIC50 in data set [1] (setting [8]) of 4.73.

In data set [1] (setting [8]), `O=C(NCc1ccc2c(c1)CCN2C(=O)c1ccccc1)c1ccc(Cl)cc1` [G883-0595] showed a pIC50 of 4.73.

`O=C(NCc1ccc2c(c1)CCN2C(=O)c1ccccc1)c1ccc(Br)cc1` [G883-0627] had a pIC50 in data set [1] (setting [8]) of 4.71.

Consider `O=C(NCc1ccc2c(c1)CCN2C(=O)c1ccc(F)cc1)c1cc2ccccc2[nH]1` [G883-0849], for which, in data set [1] (setting [8]), the pIC50 is 4.66.

`CC(C)C(=O)N1CCc2cc(CNC(=O)c3cc4ccccc4[nH]3)ccc21` [G883-2010] showed a pIC50 in data set [1] (setting [8]) of 4.60.

`O=C(NCc1nc(-c2ccc3c(c2)ncn3C2CCCC2)no1)c1ccccc1` [G945-0601]: in data set [1] (setting [8]), the pIC50 is 4.87.

The compound `O=C(NC1CCN(Cc2ccccc2)CC1)c1ccc(-c2cc(N3CCCC3)ncn2)cc1` [L010-0050] gave a pIC50 in data set [1] (setting [8]) of 4.69.

In data set [1] (AI-2 bioluminescence assay), `CSc1ccc(CNC(=O)c2cccc(-c3cnc(N4CCCC4)nc3)c2)cc1` [L368-0079] gave a pIC50 of 5.15. Also, the “biofilm formation, increased by about” value in data set [5] is ~76.8%.

In turn, `CCC(=O)N1CCc2cc(-c3ccc(C(=O)NC4CCN(Cc5ccccc5)CC4)cc3)ccc21` [L413-0101] showed a pIC50 in data set [1] (setting [8]) of 4.87.

Consider `CCC(=O)N1CCc2cc(-c3ccc(C(=O)NCc4ccc(N(C)C)cc4)cc3)ccc21` [L413-0180], for which the pIC50 in data set [1] (setting [8]) was 5.39. The compound also gave a negative-log Kd (pKd) in data set [2] of 4.11. Further, the “effect on growth of E. coli” value in data set [3] is listed as “no significant effect”. The figures for the “cytotoxicity to Caco-2 cells” value in data set [4] (100 μM) and in data set [4] (6.25 to 50 μM) were “slightly cytotoxic” and “nontoxic”, respectively. In data set [5], the “biofilm formation, increased by about” value is given as ~51.4%. Also, the “suppression of the expression of LuxS” value in data set [6] is given as ~65.1%. The “effect on metabolic activity of E. coli” value in data set [7] was “no significant effect”.

In the case of `CSc1ccc(CNC(=O)C2=Cc3cc(-c4ccccc4)ccc3OC2)cc1` [L449-1159], the pIC50 in data set [1] (AI-2 bioluminescence assay) was 5.06. The “biofilm formation, increased by about” value in data set [5] was “about 75.4%”.

`CCCn1cnc2cc(CNC(=O)c3cc4cc(Cl)ccc4[nH]3)ccc21` [M414-3326] showed a pIC50 in data set [1] (AI-2 bioluminescence assay) of 5.02. In addition, the negative logarithm of the Kd (pKd) in data set [2] (read-out: equilibrium dissociation constant (KD), LuxS immobilized on CM5 chip, PBS-P+ pH 7.4, 5% DMSO, 1:1 binding model) was 5.72. In addition, the “effect on growth of E. coli” value in data set [3] is on record as “no significant effect”. In addition, the “cytotoxicity to Caco-2 cells” value in data set [4] (6.25 to 100 μM) is “nontoxic”. The “biofilm formation, increased by about” value in data set [5] is reported as ~53.6%. In addition, the “suppression of the expression of LuxS” value in data set [6] is listed as “about 59.9%”. In data set [7], the “effect on metabolic activity of E. coli” value was “no significant effect”.

Compound `CCCc1c(C)c2ccc(OC(=O)CNC(=O)c3ccccc3)cc2oc1=O` [Y040-2389] showed a pIC50 in data set [1] (setting [8]) of 4.89.

Turning to `O=C1C=C(Br)/C(=C/Br)O1` [furanone C30, reference compound], the negative logarithm of the Kd (pKd) in data set [2] (LuxS immobilized on CM5 chip, PBS-P+ pH 7.4, 5% DMSO, 1:1 binding model, read-out: equilibrium dissociation constant (KD)) is 6.46.

Values taken from paper PMC10100900, “Virtual Screening and In Vitro Experimental Verification of LuxS Inhibitors for Escherichia coli O157:H7” (Microbiology Spectrum, 2023).
